Laboratory results taken from patent publication US20240190890A1, “MK2 INHIBITORS AND USES THEREOF” (Bristol-Myers Squibb Company, priority 2022, published 2024).

These molecules were tested against p38a activated, mitogen-activated protein kinase-activated protein kinase 2 (MAPKAP-K2 or MK2) enzyme (Homo sapiens (Human), UniProt P49137) (assay: MK2 Omnia continuous-read kinase assay for compound potency). Conditions: [MK-2]=0.4 nM, [ATP]=10 μM, [ST3-Sox]=10 μM; room temperature.
Sequence of p38a activated, mitogen-activated protein kinase-activated protein kinase 2 (MAPKAP-K2 or MK2) enzyme (P49137 whole entry): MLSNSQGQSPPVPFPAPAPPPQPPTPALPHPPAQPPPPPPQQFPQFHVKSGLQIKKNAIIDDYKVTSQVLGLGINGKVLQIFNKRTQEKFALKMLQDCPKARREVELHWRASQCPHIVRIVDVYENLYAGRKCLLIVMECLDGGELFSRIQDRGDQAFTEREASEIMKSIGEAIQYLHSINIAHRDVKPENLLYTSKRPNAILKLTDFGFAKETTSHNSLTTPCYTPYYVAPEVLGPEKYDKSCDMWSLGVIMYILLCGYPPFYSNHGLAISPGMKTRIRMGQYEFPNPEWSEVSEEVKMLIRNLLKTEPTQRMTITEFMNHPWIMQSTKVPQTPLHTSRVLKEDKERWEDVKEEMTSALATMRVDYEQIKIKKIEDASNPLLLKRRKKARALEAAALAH
Type: biochemical
How it was run: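 p38a-activated MK2 (0.4 nM) with 10 μM ATP (apparent Km) and 10 μM S/T3-Sox peptide in Tris pH 7.5 buffer with MgCl2, EGTA and DTT. Fluorescence (ex360/em485) read continuously for 120 min at room temperature. IC50 from initial linear slopes; apparent kinact/KI from kobs of exponential progress-curve fits.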
`C=Cc1cc(-c2ccc3c(ccc4sc5c(c43)NC[C@@H](C)NC5=O)n2)c(CN2CCC(OC)CC2)cn1` [Example I-155, (R)-3-(5-((4-methoxypiperidin-1-yl)methyl)-2-vinylpyridin-4-yl)-10-methyl-9,10,11,12-tetrahydro-8H-[1,4]diazepino[5′,6′:4,5]thieno[3,2-f]quinolin-8-one] gave an IC50 of 95 nM.
`C=Cc1cc(-c2ccc3c(ccc4sc5c(c43)NC[C@@H](C)NC5=O)n2)cc(CN2CCN(C)CC2)n1` [Example I-125, (R)-10-methyl-3-(2-((4-methylpiperazin-1-yl)methyl)-6-vinylpyridin-4-yl)-9,10,11,12-tetrahydro-8H-[1,4]diazepino[5′,6′:4,5]thieno[3,2-f]quinolin-8-one] showed an IC50 of 2 nM.
Work on `C[C@@H]1CNc2c(sc3ccc4nc(-c5cc(Cl)nc(CO)n5)ccc4c23)C(=O)N1` [Example I-74, (R)-3-(6-chloro-2-(hydroxymethyl)pyrimidin-4-yl)-10-methyl-9,10,11,12-tetrahydro-8H-[1,4]diazepino[5′,6′:4,5]thieno[3,2-f]quinolin-8-one] yielded an IC50 of 4 nM.
For `C=Cc1cc(C)nn1-c1ccc2c(ccc3sc4c(c32)NC[C@@H](C)NC4=O)n1` [Example I-236, (R)-10-methyl-3-(3-methyl-5-vinyl-1H-pyrazol-1-yl)-9,10,11,12-tetrahydro-8H-[1,4]diazepino[5′,6′:4,5]thieno[3,2-f]quinolin-8-one], the IC50 was 157 nM.
Work on `C=Cc1cc(-c2ccc3c(ccc4sc5c(c43)NC[C@@H](C)NC5=O)n2)ccn1` [Example I-55, (R)-10-methyl-3-(2-vinylpyridin-4-yl)-9,10,11,12-tetrahydro-8H-[1,4]diazepino[5′,6′:4,5]thieno[3,2-f]quinolin-8-one] yielded an IC50 of 1 nM.
`C=Cc1cc(-c2ccc3c(ccc4sc5c(c43)NC[C@@H](C)NC5=O)n2)cc(CO)n1` [Example I-99, (R)-3-(2-(hydroxymethyl)-6-vinylpyridin-4-yl)-10-methyl-9,10,11,12-tetrahydro-8H-[1,4]diazepino[5′,6′:4,5]thieno[3,2-f]quinolin-8-one] was tested, and the IC50 was 2 nM.
`C=Cc1cc(-c2ccc3c(ccc4sc5c(c43)NC[C@@H](C)NC5=O)n2)cc(C2CCN(C)CC2)n1` [Example I-106, (R)-10-methyl-3-(2-(1-methylpiperidin-4-yl)-6-vinylpyridin-4-yl)-9,10,11,12-tetrahydro-8H-[1,4]diazepino[5′,6′:4,5]thieno[3,2-f]quinolin-8-one] showed an IC50 of 8 nM.
With `C[C@@H]1CNc2c(sc3ccc4nc(-c5cc(Cl)nc(C#CC(C)(C)N)n5)ccc4c23)C(=O)N1` [Example I-64, (R)-3-(2-(3-amino-3-methylbut-1-yn-1-yl)-6-chloropyrimidin-4-yl)-10-methyl-9,10,11,12-tetrahydro-8H-[1,4]diazepino[5′,6′:4,5]thieno[3,2-f]quinolin-8-one] the IC50 was 4 nM.
`C#Cc1cc(-c2ccc3c(ccc4sc5c(c43)NC[C@@H](C)NC5=O)n2)cc(C2CCN(C)CC2)n1` [Example I-107, (R)-3-(2-ethynyl-6-(1-methylpiperidin-4-yl)pyridin-4-yl)-10-methyl-9,10,11,12-tetrahydro-8H-[1,4]diazepino[5′,6′:4,5]thieno[3,2-f]quinolin-8-one] gave an IC50 of 22 nM.
In the case of `C=C(CN1CCCC1)c1cc(-c2ccc3c(ccc4sc5c(c43)NC[C@@H](C)NC5=O)n2)ccn1` [Example I-116, (R)-10-methyl-3-(2-(3-(pyrrolidin-1-yl)prop-1-en-2-yl)pyridin-4-yl)-9,10,11,12-tetrahydro-8H-[1,4]diazepino[5′,6′:4,5]thieno[3,2-f]quinolin-8-one], the IC50 is reported as 6 nM.
`C=Cc1cc(-c2ccc3c(ccc4sc5c(c43)NC[C@@H](C)NC5=O)n2)c(OC(F)F)cn1` [Example I-247, (R)-3-(5-(difluoromethoxy)-2-vinylpyridin-4-yl)-10-methyl-9,10,11,12-tetrahydro-8H-[1,4]diazepino[5′,6′:4,5]thieno[3,2-f]quinolin-8-one] was tested, and the IC50 was 360 nM.
With `C=Cc1cc(-c2ccc3c(ccc4sc5c(c43)NCC(C)NC5=O)n2)cc(N2CC3CC2CO3)n1` (racemic) [Example I-216, rac-(10R)-3-(2-(2-oxa-5-azabicyclo[2.2.1]heptan-5-yl)-6-vinylpyridin-4-yl)-10-methyl-9,10,11,12-tetrahydro-8H-[1,4]diazepino[5′,6′:4,5]thieno[3,2-f]quinolin-8-one] the IC50 was 11 nM.
`C=Cc1nc2c(c(-c3ccc4c(ccc5sc6c(c54)NC[C@@H](C)NC6=O)n3)n1)CN(C)CC2` [Example I-191, (R)-10-methyl-3-(6-methyl-2-vinyl-5,6,7,8-tetrahydropyrido[4,3-d]pyrimidin-4-yl)-9,10,11,12-tetrahydro-8H-[1,4]diazepino[5′,6′:4,5]thieno[3,2-f]quinolin-8-one] was tested, and the IC50 was 289 nM.
`C#Cc1cc(-c2ccc3c(ccc4sc5c(c43)NC[C@@H](C)NC5=O)n2)c(CN2CCOCC2)cn1` [Example I-154, (R)-3-(2-ethynyl-5-(morpholinomethyl)pyridin-4-yl)-10-methyl-9,10,11,12-tetrahydro-8H-[1,4]diazepino[5′,6′:4,5]thieno[3,2-f]quinolin-8-one] gave an IC50 of 49 nM.
For `C=C(F)c1ncc(F)c(-c2ccc3c(ccc4sc5c(c43)NC[C@@H](C)NC5=O)n2)n1` [Example I-31, (R)-3-(5-fluoro-2-(1-fluorovinyl)pyrimidin-4-yl)-10-methyl-9,10,11,12-tetrahydro-8H-[1,4]diazepino[5′,6′:4,5]thieno[3,2-f]quinolin-8-one], the IC50 was 24 nM.
With `C#Cc1cc(-c2ccc3c(ccc4sc5c(c43)NC[C@@H](C)NC5=O)n2)cnn1` [Example I-51, (R)-3-(6-ethynylpyridazin-4-yl)-10-methyl-9,10,11,12-tetrahydro-8H-[1,4]diazepino[5′,6′:4,5]thieno[3,2-f]quinolin-8-one] the IC50 was 3 nM.
For `C=Cc1cc(-c2ccc3c(ccc4sc5c(c43)NC[C@@H](C)NC5=O)n2)cc(N2CCC(COC)CC2)n1` [Example I-240, (R)-3-(2-(4-(methoxymethyl)piperidin-1-yl)-6-vinylpyridin-4-yl)-10-methyl-9,10,11,12-tetrahydro-8H-[1,4]diazepino[5′,6′:4,5]thieno[3,2-f]quinolin-8-one], the IC50 was 107 nM.
`C=C(CN1CCOCC1)c1cc(-c2ccc3c(ccc4sc5c(c43)NC[C@@H](C)NC5=O)n2)ccn1` [Example I-131, (R)-10-methyl-3-(2-(3-morpholinoprop-1-en-2-yl)pyridin-4-yl)-9,10,11,12-tetrahydro-8H-[1,4]diazepino[5′,6′:4,5]thieno[3,2-f]quinolin-8-one] gave an IC50 of 3 nM.
Work on `C=Cc1nc(C)cn1-c1ccc2c(ccc3sc4c(c32)NC[C@@H](C)NC4=O)n1` [Example I-206, (R)-10-methyl-3-(4-methyl-2-vinyl-1H-imidazol-1-yl)-9,10,11,12-tetrahydro-8H-[1,4]diazepino[5′,6′:4,5]thieno[3,2-f]quinolin-8-one] yielded an IC50 of 4 nM.
`C=Cc1cc(-c2ccc3c(ccc4sc5c(c43)NC[C@@H](C)NC5=O)n2)c(COCC)cn1` [Example I-262, (R)-3-(5-(ethoxymethyl)-2-vinylpyridin-4-yl)-10-methyl-9,10,11,12-tetrahydro-8H-[1,4]diazepino[5′,6′:4,5]thieno[3,2-f]quinolin-8-one] showed an IC50 of 35 nM.
`C=Cc1cc(-c2ccc3c(ccc4sc5c(c43)NC[C@@H](C)NC5=O)n2)cc(N2CC(F)(F)C2)n1` [Example I-184, (R)-3-(2-(3,3-difluoroazetidin-1-yl)-6-vinylpyridin-4-yl)-10-methyl-9,10,11,12-tetrahydro-8H-[1,4]diazepino[5′,6′:4,5]thieno[3,2-f]quinolin-8-one] gave an IC50 of 175 nM.
In the case of `C#Cc1cc(-c2ccc3c(ccc4sc5c(c43)NC[C@@H](C)NC5=O)n2)cc(C)n1` [Example I-112, (R)-3-(2-ethynyl-6-methylpyridin-4-yl)-10-methyl-9,10,11,12-tetrahydro-8H-[1,4]diazepino[5′,6′:4,5]thieno[3,2-f]quinolin-8-one], the IC50 is reported as 152 nM.
`C=Cc1cc(C(F)(F)F)nn1-c1ccc2c(ccc3sc4c(c32)NC[C@@H](C)NC4=O)n1` [Example I-241, (R)-10-methyl-3-(3-(trifluoromethyl)-5-vinyl-1H-pyrazol-1-yl)-9,10,11,12-tetrahydro-8H-[1,4]diazepino[5′,6′:4,5]thieno[3,2-f]quinolin-8-one] showed an IC50 of 1000 nM.
With `C=Cc1nc(Cl)c(Cl)n1-c1ccc2c(ccc3sc4c(c32)NC[C@@H](C)NC4=O)n1` [Example I-251, (R)-3-(4,5-dichloro-2-vinyl-1H-imidazol-1-yl)-10-methyl-9,10,11,12-tetrahydro-8H-[1,4]diazepino[5′,6′:4,5]thieno[3,2-f]quinolin-8-one] the IC50 was 192 nM.
`C/C=C\c1cc(-c2ccc3c(ccc4sc5c(c43)NC[C@@H](C)NC5=O)n2)nc(COCC)n1` [Example I-36, (R,Z)-3-(2-(ethoxymethyl)-6-(prop-1-en-1-yl)pyrimidin-4-yl)-10-methyl-9,10,11,12-tetrahydro-8H-[1,4]diazepino[5′,6′:4,5]thieno[3,2-f]quinolin-8-one] was tested, and the IC50 was 12 nM.
With `C#Cc1cc(-c2ccc3c(ccc4sc5c(c43)NC[C@@H](C)NC5=O)n2)c(F)cn1` [Example I-71, (R)-3-(2-ethynyl-5-fluoropyridin-4-yl)-10-methyl-9,10,11,12-tetrahydro-8H-[1,4]diazepino[5′,6′:4,5]thieno[3,2-f]quinolin-8-one] the IC50 was 39 nM.
`C[C@@H]1CNc2c(sc3ccc4nc(-n5ccnc5Cl)ccc4c23)C(=O)N1` [Example I-205, (R)-3-(2-chloro-1H-imidazol-1-yl)-10-methyl-9,10,11,12-tetrahydro-8H-[1,4]diazepino[5′,6′:4,5]thieno[3,2-f]quinolin-8-one] showed an IC50 of 97 nM.
`C[C@@H]1CNc2c(sc3ccc4nc(-c5nc(Cl)ncc5F)ccc4c23)C(=O)N1` [Example I-273, (R)-3-(2-chloro-5-fluoropyrimidin-4-yl)-10-methyl-9,10,11,12-tetrahydro-8H-[1,4]diazepino[5′,6′:4,5]thieno[3,2-f]quinolin-8-one] was tested, and the IC50 was 153 nM.
